One data set has as its system HT-29 tumor-bearing mice. Kind of data set: In vivo radioactivity distribution assay in HT-29 tumor-bearing mice. From the text: Under 2% isoflurane anesthesia, a suspension of HT-29 cells (5×10^6 cells/mouse) expressing CA-IX was subcutaneously injected into the left shoulder of each of 5-week-old male BALB/c nude mice (purchased from SHIMIZU Laboratory Supplies CO., LTD.). The composition of the suspension was a mixture of HT-29 cells/DMEM medium (manufactured by Thermo Fisher Scientific Inc.) and a matrix product (Geltrex (registered trademark) (manufactured by Thermo Fisher) at a volume ratio of 1:1.
Thereafter, the subcutaneously injected mice were raised for 14 days in a raising room that switches day and night every 12 hours with normal food and tap water to obtain HT-29 tumor-bearing mice.
Then, a saline solution (259 kBq, 100 μL, containing 3 mg of ascorbic acid) of each of the radioactive labeled compounds of Examples 1 to 3 or a saline solution (259 kBq, 100 μL, containing 1 mg of ascorbic acid) of the radioactive labeled compound of Comparative Example 1 was injected into each of the mice via the tail vein thereof. The mice (n=5 in each group) were euthanized 1, 4, 8, 24, 48, 96, or 192 hours after the injection, blood, organs, and tumor sites were collected, and the masses thereof were measured. The amount of radioactivity was measured with a gamma counter.
The degree of accumulation of the radioactive labeled compound is indicated as a value (% injected dose/g) obtained by dividing the percentage (% ID) of the amount of radioactivity with respect to the amount of injected radioactivity (injected dose) by the mass of blood or the mass of an organ (g). […] Results are illustrated in FIG. 1.

A further data set has as its target T1, CA-IX (Homo sapiens, UniProt Q16790).
T1 construct: HT-29 cells (CA-IX highly expressing cells, purchased from Sumitomo Dainippon Pharma Co., Ltd.); host or cells: HT-29 cells
Kind of data set: Cell binding inhibition assay (acetazolamide as inhibitor, HT-29 cells). As to conditions: read-out: IC50 (nM, mean ± SD). The method, then:
In this evaluation, binding properties of [^111In]IS-DO2A-ALB1 to DO2A-ALB4 and [^111In]DO3A-IS1 with respect to CA-IX were evaluated.
Specifically, HT-29 cells (CA-IX highly expressing cells, purchased from Sumitomo Dainippon Pharma Co., Ltd.) were seeded together with a medium at 4.0×10^5 cells/well in a 12 well plate, and cultured at 37° C. for 24 hours in an atmosphere of 5% carbon dioxide.
Subsequently, the medium was removed, and a medium containing any one of the radioactive labeled compounds of Examples 1 to 4 and Comparative Example 1 (37 kBq/mL) was added to each well in an amount of 1 mL such that the acetazolamide concentration was 50000 to 0.00512 nM as an inhibitor, and the sample was cultured at 37° C. for two hours in an atmosphere of 5% carbon dioxide. In addition, a sample containing the radioactive labeled compound and not containing acetazolamide was also cultured under similar conditions. The experiment was performed with each concentration group at n=6.
Subsequently, the medium was removed, the residue was washed with PBS (1 mL), and cells were lysed with a 1 N sodium hydroxide aqueous solution (200 μL×2) to obtain a cell lysate. Then, the amount of radioactivity in the cell lysate and that in the medium containing the radioactive labeled compound were each measured with a gamma counter (type name: Wallac 2470 Wizard manufactured by PerkinElmer, Massachusetts, U.S.A.). Separately from this, the total protein mass (mg protein) in the cell lysate was quantified by a BCA method. […] Results are illustrated in Table 2 below as mean±standard deviation (mean±SD).
That is, the […] the calculated value of IC50, the higher affinity between the radioactive labeled compound and CA-IX.

Data set [1] in a line: Distribution coefficient (1-octanol/PBS). The class given is physicochemical. As to conditions: log10, 1-octanol/PBS pH 7.4, n=5. The method, then: The radioactive labeled compound (740 kBq) of any one of Examples and Comparative Examples was added to a mixed liquid of PBS (3 mL, pH 7.4 (20° C.)) and 1-octanol (3 mL), and the mixture was vortexed for two minutes and then centrifuged at 4000×g for five minutes. Thereafter, 1 mL of the 1-octanol layer and 500 μL of the PBS layer were collected, and the amount of radioactivity of each of the layers was measured with a gamma counter (n=5).
As a calculation formula of a distribution coefficient, “log10 [(amount of radioactivity of 1-octanol layer)/(amount of radioactivity of PBS layer×2)]” was used. Results are illustrated in Table 1 below as mean±standard deviation (mean±SD).
[^111In]In-PtDA (111 kBq) was added to a mixed liquid of PBS (pH 7.4, 3 mL) and 1-octanol (3 mL). The mixture was dispersed by vortexing for two minutes, and then centrifuged at 4000×g for five minutes. 1 mL of the 1-octanol layer and 1 mL of the PBS layer were collected, and the radioactivity of each of the layers was measured with a gamma counter (n=3).
As a calculation formula, “(distribution coefficient)=[…]) [(radioactivity of 1-octanol layer [kBq])/(radioactivity of PBS layer [kBq])]” was used.

Data set [2] concerns LNCaP tumor transplanted mice. Kind of data set: Suppression of tumor growth by 225Ac-labeled compound. The class given is in vivo. As to conditions: 20 kBq i.v., FIG. 9. As to the method:
[^225Ac]Ac-PSMA-DA1 (20 kBq) or [^225Ac]Ac-PSMA-DB (20 kBq) obtained by the above-described method was dissolved in a 5% ethanol-containing acetate buffer (158 mM, pH 6.5, 100 μL), and the solution was injected into each of the LNCaP tumor transplanted mice via the tail vein thereof (n=6 or 5). As a control group, 100 μL of 5% ethanol-containing acetate buffer (158 mM, pH 6.5) was injected into each of the LNCaP tumor transplanted mice via the tail vein thereof (n=4).
After the injection of the ^225Ac-labeled compound, a tumor volume and a body weight were measured three times per week. The tumor volumes on the start day of injection of the ^225Ac-labeled compound were 75.3±26.0, 80.6±20.8, and 91.1±15.9 mm^3 in the [^225Ac]Ac-PSMA-DA1 injection group, the [^225Ac]Ac-PSMA-DB injection group, and the 5% ethanol-containing acetate buffer injection group, respectively.

Data set [3] deals with MDA-MB-231 tumor-bearing mice. The data set can be described thus: In vivo radioactivity distribution assay in MDA-MB-231 tumor-bearing mice. As to conditions: 24 hours after injection. As to the method: In a similar manner to Evaluation 3, a suspension of MDA-MB-231 cells (1×10^7 cells/mouse) having low expression of CA-IX was subcutaneously injected into the left shoulder of each of 5-week-old male BALB/c nude mice to obtain MDA-MB-231 tumor-bearing mice.
Then, a saline solution (40 kBq, 100 μL, containing 3 mg of ascorbic acid) of the radioactive labeled compound of Example 1 was injected into each of the mice via the tail vein thereof. Mice (n=5 in each group) were euthanized 24 hours after the injection, blood, organs, and tumor sites were collected, and the masses thereof were measured. The amount of radioactivity was measured with a gamma counter.
The degree of accumulation of the radioactive labeled compound is indicated as a value (% ID/g) obtained by dividing the percentage (% ID) of the amount of radioactivity with respect to the amount of injected radioactivity (injected dose) by the mass of blood or the mass of an organ (g). […] Results are illustrated in Table 3 as mean±standard deviation (n=5).

Where [4] appears, read: IC50 of inhibitor acetazolamide against binding of the radioactive labeled compound to HT-29 cells, 2 h, larger value = higher affinity of labeled compound for CA-IX.

Like-named read-outs stand apart in the source and are kept apart here.

Regarding `NS(=O)(=O)c1nn2cc(-c3ccc(NC(=O)CN4CCN(CC(=O)[O-])CCN(CC(=O)[O-])CCN(CC(=O)[O-])CC4)cc3)nc2s1.[111In+3]` [[^111In]DO3A-IS1], in the data set with HT-29 tumor-bearing mice (FIG. 1), the “Amount accumulated in the kidney (in words)” value is recorded as “very large as compared with the results of Examples”. Also, the “Amount accumulated in the tumor expressing CA-IX (in words)” value in the data set with HT-29 tumor-bearing mice (FIG. 1, HT-29 tumor) is “poor”.
Take `NS(=O)(=O)c1nn2cc(-c3ccc(NC(=O)CN4CCN(CC(=O)O)CCN(CC(=O)O)CCN(CC(=O)O)CC4)cc3)nc2s1` [[^111In]DO3A-IS1, metal not drawn]: the IC50 on CA-IX stood at 127 ± 19.6 nM. The “Distribution coefficient (mean ± SD)” value in data set [1] was −3.72 ± 0.05.
As for `O=C([O-])CN1CCN(C(CCC(=O)NCCCC[C@H](NC(=O)N[C@@H](CCC(=O)O)C(=O)O)C(=O)O)C(=O)[O-])CCN(CC(=O)[O-])CCN(C(CCC(=O)N[C@@H](CCCCNC(=O)CCCc2ccc(I)cc2)C(=O)O)C(=O)[O-])CC1.[225Ac+3]` (stereo partly drawn) [[^225Ac]Ac-PSMA-DA1], in data set [2], the “Course of tumor growth (in words)” value was “the tumor hardly grew, and continuous growth suppression was observed up to six weeks after the injection”; the “Decrease in body weight (in words)” value is “transient”; the “Tumor growth compared with control group (in words)” value is recorded as “tumor growth was significantly suppressed”.
Consider `NS(=O)(=O)c1nn2cc(-c3ccc(NC(=O)CN4CCN(CC(=O)O)CCN(CC(=O)N[C@@H](CCCCNC(=O)CCCc5ccc(Br)cc5)C(=O)O)CCN(CC(=O)O)CC4)cc3)nc2s1.[111In+3]` [[^111In]IS-DO2A-ALB3], for which the IC50 at CA-IX (setting [4]) turned out to be 288 ± 45.7 nM. Also, in data set [1], the “Distribution coefficient (mean ± SD)” value is listed as −1.90 ± 0.01.
For `NS(=O)(=O)c1nn2cc(-c3ccc(NC(=O)CN4CCN(CC(=O)O)CCN(CC(=O)N[C@@H](CCCCNC(=O)CCCc5ccc(I)cc5)C(=O)O)CCN(CC(=O)O)CC4)cc3)nc2s1.[111In+3]` [[^111In]IS-DO2A-ALB1], in data set [3], the “Radioactivity accumulated amount: Blood” value was found to be 5.50 ± 1.17 % ID/g, the “Radioactivity accumulated amount: Brain” value is on record as 0.34 ± 0.03 % ID/g, the “Radioactivity accumulated amount: Heart” value stood at 3.12 ± 0.25 % ID/g and the “Radioactivity accumulated amount: Intestinal” value was 4.65 ± 0.48 % ID/g. Also, in data set [3], the “Radioactivity accumulated amount: Kidney” value turned out to be 11.42 ± 0.65 % ID/g, the “Radioactivity accumulated amount: Liver” value was 2.64 ± 0.47 % ID/g, the “Radioactivity accumulated amount: Lung” value turned out to be 7.28 ± 0.85 % ID/g and the “Radioactivity accumulated amount: Muscle” value is recorded as 1.21 ± 0.22 % ID/g. In data set [3], the “Radioactivity accumulated amount: Pancreas” value came out at 2.27 ± 0.30 % ID/g, the “Radioactivity accumulated amount: Spleen” value came out at 2.04 ± 0.45 % ID/g, the “Radioactivity accumulated amount: Stomach” value came out at 4.44 ± 0.48 % ID and the “Radioactivity accumulated amount: Tumor (MDA-MB-231)” value is reported as 5.05 ± 0.59 % ID/g. In data set [3], the Tumor/blood radioactivity ratio came out at 0.94 ± 0.17, the Tumor/kidney radioactivity ratio worked out at 0.44 ± 0.05 and the Tumor/muscle radioactivity ratio is recorded as 4.22 ± 0.47. Also, the “Accumulation in the HT-29 tumor” value in the data set with HT-29 tumor-bearing mice (value of Evaluation 3 quoted for comparison with Table 3) was determined as 10.73 % ID/g. Besides, the IC50 on CA-IX (setting [4]) was found to be 571.4 ± 2.6 nM. For the same compound, the “Distribution coefficient (mean ± SD)” value in data set [1] was −1.70 ± 0.01.
`NS(=O)(=O)c1nn2cc(-c3ccc(NC(=O)CN4CCN(CC(=O)O)CCN(CC(=O)N[C@@H](CCCCNC(=O)CCCc5ccccc5)C(=O)O)CCN(CC(=O)O)CC4)cc3)nc2s1.[111In+3]` [[^111In]IS-DO2A-ALB4, [^111In] indium(III) (S)-2,2′-(−(2-((1-carboxy-5-(4-phenylbutanamide)pentyl)amino)-2-oxoethyl)-10-(2-oxo-2-((4-(2-sulfamoylimidazo[2,1-b][1,3,4]thiadiazol-6-yl)phenyl)amino)ethyl)-1,4,7,10-tetraazacyclododecane-1,7-diyl) diacetic acid]: the IC50 at CA-IX (setting [4]) turned out to be 105 ± 8 nM. Further, the “Distribution coefficient (mean ± SD)” value in data set [1] is given as −2.36 ± 0.01.
Consider `O=C([O-])CN1CCN(C(CCC(=O)NCCCC[C@H](NC(=O)N[C@@H](CCC(=O)O)C(=O)O)C(=O)O)C(=O)[O-])CCN(CC(=O)[O-])CCN(C(CCC(=O)Nc2ccccc2)C(=O)[O-])CC1.[225Ac+3]` (stereo partly drawn) [[^225Ac]Ac-PSMA-DB], for which, in data set [2], the “Decrease in body weight (in words)” value is on record as “temporarily accelerated, but there was no sign of recovery thereafter” and the “Tumor growth compared with control group (in words)” value was “tumor growth was significantly suppressed”.
With `Cc1ccc(CCCC(=O)NCCCC[C@H](NC(=O)CN2CCN(CC(=O)O)CCN(CC(=O)Nc3ccc(-c4cn5nc(S(N)(=O)=O)sc5n4)cc3)CCN(CC(=O)O)CC2)C(=O)O)cc1.[111In+3]` [[^111In]IS-DO2A-ALB2, [^111In] indium(III) (S)-2,2′-(4-(2-((1-carboxy-5-(4-(4-tolyl)butanamide)pentyl)amino)-2-oxoethyl)-10-(2-oxo-2-((4-(2-sulfamoylimidazo[2,1-b][1,3,4]thiadiazol-6-yl)phenyl)amino)ethyl)-1,4,7,10-tetraazacyclododecane-1,7-diyl) diacetic acid], on CA-IX (setting [4]), the half-maximal inhibitory concentration (IC50) amounted to 165 ± 60.6 nM. For the same compound, the “Distribution coefficient (mean ± SD)” value in data set [1] was −2.16 ± 0.04.

The values above are taken from patent publication US20230112418A1, “COMPOUND AND RADIOACTIVE LABELING COMPOUND” (NIHON MEDI-PHYSICS CO., LTD., priority 2020, published 2023).
